Measured values from patent publication US20240277682A1, “PHARMACEUTICAL HYDRONIDONE FORMULATIONS FOR DISEASES” (Gyre Therapeutics, Inc., priority 2021, published 2024).
pIC50: −log10 of the molar value.

Experiments:
[1] = test system: liver fibrosis due to chronic Hepatitis B; experiment: Phase II study in subjects with liver fibrosis due to chronic Hepatitis B, 52 weeks, Entecavir basic treatment (Examples 11-21); format: in vivo, human
Experimental: This is a Phase II, randomized, double-blind, placebo-controlled, Entecavir-Basic Treatment, multi-center, dose-ranging study on the efficacy and safety of Hydronidone when administered to Chinese subjects with liver fibrosis due to chronic Hepatitis B for 52 consecutive weeks.
Approximately 240 eligible subjects, approximately 60 subjects per dose cohort, are planned to be enrolled in the study and treated daily with Hydronidone oral doses of 30 mg, 60 mg. or 120 mg TID (total daily doses of […], […], and 360 mg, respectively) for 52 consecutive weeks or placebo, concomitantly with basic anti-viral treatment with Entecavir at a daily dose of 0.5 mg. In parallel, a group of 12 subjects will be evaluated for PK.

[2] = Crossover study of food effect on safety, tolerability and PK of a single oral dose (Example 8); format: in vivo, human
Experimental: This was a randomized, open-label, 2-period, crossover PK study of effects of food on safety, tolerability, and PK of single oral doses of Hydronidone in healthy Chinese subjects. The PK parameters of the M3 and M4 metabolites of Hydronidone, in presence or absence of food were also determined.
Twelve healthy Chinese subjects were enrolled, dosed and in this inpatient study. They were randomly assigned in two groups/periods to receive a single oral 600 mg (3×200 mg) dose of Hydronidone either under fasted, or fed (high fat) conditions. Within each treatment period, PK blood samples were collected at: 0 (pre-dose), 10 min, 20 min, 30 min, 40 min, 1 hr, 1.5 hr, 2 hr, 3 hr, 4 hr, 5 hr, 6 hr, 8 hr, 10 hr, 12 hr, 16 hr, and 24 hr, and 48 hr post-dose. The wash-out period between the two periods in this trial was 48 hours.

liver fibrosis = experiment: CCl4-induced liver fibrosis in mice; format: in vivo
Experimental: Hydronidone anti-fibrotic effects were evaluated in several animal models of liver fibrosis, such as human serum albumin (HSA)-induced liver fibrosis in rats, dimethyl nitrosamine (DMN)-induced liver fibrosis in rats, and carbon tetrachloride (CCl4)-induced liver fibrosis in mice. […] In the CCl4-induced liver fibrosis in mice, Hydronidone effects were the most prominent at the doses of 3-10 mg/kg/day, although some effects were also shown at the dose of 1 mg/kg/day. In some embodiments, this dose range corresponds to human equivalent dose (HED) range of 15-50 mg. […] The HED of these rat doses are in the range of 100-2,400 mg which were all tested as safe in Phase I clinical trials of Hydronidone, with the 100 mg dose being […] the maximum daily dose of 360 mg (administered as 120 mg TID) administered to the subjects with liver fibrosis due to chronic Hepatitis B in the ongoing Phase II clinical study of efficacy and safety of Hydronidone in China.

human CYP 2C9 = human CYP 2C9 (Homo sapiens, UniProt P11712); experiment: CYP450 inhibition, fluorescence of metabolic substrates
Experimental: (§1) In vitro study investigated whether Hydronidone is inhibitor for human cytochrome P450 (CYP450). The effects of different Hydronidone concentrations were determined by the fluorescence intensity of metabolic substrates of CYP1A2, 2C9, 2C19, 2 D6 and 3A4, produced under the effect of the relevant enzyme. The respective IC50 value were calculated in the event of observed inhibition with hydronidone.

human CYP 2 D6 = human CYP 2 D6 (Homo sapiens, UniProt P10635); experiment: as above
Experimental: as §1

human CYP 3A4 = human CYP 3A4 (Homo sapiens, UniProt P08684); experiment: as above
Experimental: as §1

human CYP 2C19 = human CYP 2C19 (Homo sapiens, UniProt P33261); experiment: as above
Experimental: as §1

[3] = Double-blind placebo-controlled tolerability study of single and multiple ascending doses in healthy subjects (Example 6); format: in vivo; conditions: for ALT / AST: one subject
Excerpt: The main objective of this study was to evaluate the tolerability of single and multiple ascending doses of Hydronidone in healthy subjects to support further Phase 1 studies as well to provide supportive information for dosage regimen in Phase II clinical trials.
This was a randomized, double-blind, placebo-controlled, in-patient study of single and multiple escalating doses of Hydronidone in healthy Chinese male and female subjects, 18-45 years of age, satisfying all inclusion and exclusion criteria. Hydronidone 100 mg and 200 mg capsule dosage strengths were used in the study. In every cohort, the subjects were randomly assigned to Hydronidone or placebo at a ratio of 3:1.
The single-dose component of the trial included 30 subjects that received 100 mg, 200 mg, 400 mg, 600 mg and 800 mg of Hydronidone, respectively (6 subjects/cohort). The post-dose observations were performed 24 hrs following the dosing. All subjects have completed the trial. […] Mild transient dizziness following administration of the test article was reported in one subject in each of the 800 mg Hydronidone and placebo cohorts. The dizziness resolved on its own, without sequelae. The post-dose values of some of the laboratory parameters were abnormal, both in Hydronidone and placebo groups. However, these changes were not considered clinically significant.
The multiple-dose component of the trial included 20 subjects assigned to receive 600 mg (8 subjects) three times per day (TID) (total daily dose of 1800 mg), or 800 mg of Hydronidone (12 subjects) TID (total daily dose of 2400 mg) for ten (10) consecutive days. Due to several cases of AEs of hypertriglyceridemia (4 out of 8 subjects) observed in the Hydronidone 600 mg TID dose group, the subjects (n=8) in the Hydronidone TID 800 mg dose group were divided into two subgroups, each comprising of 4 subjects. […] Due to inadvertent omission of the blood glucose test in the first sub-group (all four subjects) of the Hydronidone 800 mg TID dose group at the final study visit, per Principal Investigator decision, the enrollment was extended to include new four (4) subjects, increasing the total number of subjects in this dose group to 12. The safety evaluations were performed pre-dose, on the Day 5 of dosing, and 24 hr after the last dose of the 10-day dosing period.

[4] = single oral 600 mg dose of Hydronidone, fed vs fasted
[5] = 800 mg TID, fifth day of dosing
[6] = 800 mg TID, repeated test on study day 6

Structure (SMILES): Cc1ccc(=O)n(-c2ccc(O)cc2)c1 [Hydronidone, N-(4-hydroxyphenyl)-5-Methyl-2-pyridone]
- Ishak score improvement in patients of significant fibrosis ([1]; 52 weeks): consistent with the results of primary endpoint analysis
- improvement in HBeAg(−) vs HBeAg(+) patients ([1]; 52 weeks): better than in HbeAg(+) patients
- response in HBV DNA+ patients ([1]; HBV DNA+ after 52 weeks Entecavir therapy, Ishak>3): all patients (Ishak>3) responded
- Ishak score ≥1 (primary endpoint) ([1]; after 52 weeks of therapy, with Entecavir): significantly lower the Ishak score
- intra group Ishak score change ([1]; after 52 weeks, all drug groups): statistically significant decline of Ishak score≥1
- change of liver stiffness measurement LSM ([1]; after 52 weeks, all drug groups, intra group P<0.01): decline of LSM(kPa)
- Ishak score changes ([1]; baseline HBeAg (+) patients after 52 weeks): statistical significant changes when dose groups are combined
- Ishak score changes ([1]; baseline HBeAg (−) patients after 52 weeks): statistical significant changes when dose groups are combined
- fibrosis in patients of significant fibrosis and cirrhosis ([1]; combination of 270 mg and 360 mg groups): can improve fibrosis
- fibrosis in patients of significant fibrosis and cirrhosis ([1]; combination of all drug groups): can improve fibrosis
- LSM scores ([1]; combination of drug groups, Advanced Fibrosis (Ishak≥4)): showed statistical significance
- best dose group (patients of significant fibrosis) ([1]; total daily dose, 52 weeks): 270 mg
- effect of food (high-fat meal) on Cmax [2, 4]: decreasing their Cmax values
- effect of food (high-fat meal) on rate of absorption [2, 4]: delayed the rate of absorption
- safety and tolerability ([2]; single oral 600 mg dose, fed or fasted): safe and well tolerated, without SAEs or AEs reported
- anti-fibrotic effect (level of fibrosis, hydroxyproline, ALT, AST) (liver fibrosis): potent anti-fibrotic effect
- dose at which some effects were also shown (liver fibrosis): 1 mg/kg/day
- doses at which effects were the most prominent (liver fibrosis): 3 to 10 mg/kg/day
- pIC50 (human CYP 2C9): < 4.00
- pIC50 (human CYP 2 D6): < 4.00
- pIC50 (human CYP 3A4): < 4.00
- pIC50 (human CYP 2C19): < 4.00
- instances of hypertriglyceridemia ([3]; 600 mg TID, 10 days): 3 instances
- number of AEs reported ([3]; 600 mg TID, 10 days): 7 AEs
- instances of hyperlipidemia ([3]; 800 mg TID, 10 days): 3 instances
- instances of liver dysfunction ([3]; 800 mg TID, 10 days): 3 instances
- number of AEs reported ([3]; 800 mg TID, 10 days): 14 AEs
- deaths and SAEs ([3]; multiple-dose component, 600 or 800 mg TID, 10 days): No deaths nor SAEs were reported
- ALT [3, 5]: 79 U/L
- AST [3, 5]: 47 U/L
- ALT [3, 6]: 101 U/L
- AST [3, 6]: 61 U/L
- subjects with mild transient dizziness ([3]; single dose 800 mg cohort): one
- safety and tolerability ([3]; single dose 100, 200, 400, 600, 800 mg, healthy subjects): safe and well tolerated at all doses tested
- deaths and serious adverse events ([3]; single-dose component): No deaths nor serious adverse events (SAEs) were reported
